By IC50 is commonly meant the point on the concentration scale where inhibition reaches its midpoint.

The values below come from PubChem BioAssay AID1159565 (GlaxoSmithKline (GSK), 2015).

This test relates to T. cruzi-infected H9C2 cardiomyocytes, high-content imaging. Description: anti-T. cruzi activity in infected cardiomyocytes – imaging, H9C2 host cardiomyocytes, host toxicity (AID 1159565).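 Note: infected cells incubated 72 h after plating.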
Setting [1] is: measured here: H9C2 host cell toxicity.
[2] abbreviates: measured here: amastigotes per cell.

Activity calls are given as the source filed them. The rule behind the calls is not given here.

As for `O=C1CN(C(=O)c2cccc(Nc3ncc(-c4ccc5c(c4)OCO5)cn3)c2)CCN1`, the IC50 is 0.79 µM. This compound also showed an IC50 under setting [1] of 63 µM. Further, under setting [2], the half-maximal inhibitory concentration (IC50) was found to be 0.5 µM.
The corresponding values for `O=C(NCC(c1cccs1)N1CCOCC1)c1ccc([N+](=O)[O-])o1` (stereo unspecified) are 16 µM, 5 µM and 16 µM.
Consider `COc1ncc(-c2ccc3nccc(-c4ccncc4)c3c2)cc1NS(=O)(=O)C1CC1`, for which the IC50 was 2.5 µM. The compound further gave an IC50 under setting [1] of 0.79 µM. Further, under setting [2], the IC50 came to 2 µM.
The corresponding values for `CC(C)(C)C(=O)NCCc1csc(-c2ccc(F)cc2)n1` are 3.2 µM, above 50 µM and 2.5 µM.
The corresponding values for `Cc1cc(Nc2cc(C3CC3)[nH]n2)nc(N2CCC[C@H]2C(N)=O)n1` are 0.063 µM, 0.13 µM and 0.02 µM.
The matching figures for `O=C(O)[C@H]1C[C@@H]1c1ccc(-c2ccc(CN(CCc3ccccn3)C(=O)C3CCC3)cc2)cc1`: 32 µM, above 50 µM and 32 µM.
`O=C(Nc1ccc(C(F)(F)F)cc1)Nc1cccc([N+](=O)[O-])c1`: the half-maximal inhibitory concentration (IC50) was 1.3 µM. The IC50 under setting [1] was determined as 5 µM. This compound also registered an IC50 under setting [2] of 0.79 µM.
The corresponding values for `CCOc1cc(NCCCN2CCN(C)CC2)c2ncccc2c1` are 1.3 µM, 32 µM and 1 µM.
The matching figures for `Fc1ccccc1N1C[C@H]2CCN(c3cccnc3)C[C@H]2C1`: 0.2 µM, above 50 µM and 0.2 µM.
The corresponding values for `O=C(N[C@H](CO)c1ccccc1)c1ccc(-c2c[nH]c3nccc(C(F)(F)F)c23)s1` are 10 µM, 13 µM and 10 µM.
With `Cc1nc(N2CC(C)OC(C)C2)sc1C(=O)Nc1ccc2c(c1)OCO2` (stereo unspecified), the IC50 is 4 µM. Further, the IC50 under setting [1] is above 50 µM. Besides, the IC50 under setting [2] stood at 2.5 µM.
The corresponding values for `Oc1cccnc1-c1n[nH]c(Cc2ccccc2)n1` are 7.9 µM, 16 µM and 6.3 µM.
As to `Cc1[nH]n2c(=O)c3c(nc2c1-c1ccc(Br)cc1)CCCC3`, the half-maximal inhibitory concentration (IC50) is 1.6 µM. This compound came in with an IC50 under setting [1] above 50 µM. In addition, under setting [2], the IC50 was 0.79 µM.
The matching figures for `COc1ccc(-c2nc3ccncc3c(=O)n2CCOc2ccccc2)cc1`: 0.4 µM, above 50 µM and 0.4 µM.
The matching figures for `O=C(NCc1ccc(-n2cccc2)cc1)c1nc(Cn2ccc([N+](=O)[O-])n2)no1`: 2.5 µM, above 50 µM and 1.3 µM.
For the compound `CN(C)Cc1ccc(N2CCC(NS(=O)(=O)c3ccc(Cl)cc3)CC2)cc1`, the IC50 is 0.32 µM. Under setting [1], this compound had an IC50 of 13 µM. In addition, the IC50 under setting [2] was determined as 0.25 µM.
The matching figures for `O=S(=O)(NCC(c1cccnc1)N1CCN(c2ccc(F)cc2)CC1)c1cccs1` (stereo unspecified): 0.13 µM, above 50 µM and 0.13 µM.
On to `N#CN1CC[C@@H](NC(=O)Nc2ccccc2Oc2ccccc2)C1`, for which the IC50 is 4 µM. The IC50 under setting [1] turned out to be 20 µM. For the same compound, under setting [2], the 50% inhibitory concentration (IC50) came to 5 µM.
The corresponding values for `CCN(CC)c1nc(N(C)C)nc2c1CN(Cc1ccccc1)CC2` are 20 µM, above 50 µM and 4 µM.
The corresponding values for `Cc1nccn1C1CCCN(C(=O)c2cc3c(F)cccc3s2)C1` (stereo unspecified) are 1 µM, above 50 µM and 0.79 µM.
For the compound `Cn1cc(CN2CCN(c3ccc4c(c3)CCN(C(=O)[C@H]3C[C@@H]3c3ccccc3)CC4)CC2)cn1`, the IC50 is 3.2 µM. Besides, the 50% inhibitory concentration (IC50) under setting [1] turned out to be 32 µM. In addition, the IC50 under setting [2] worked out at 0.79 µM.
The matching figures for `CCCN1CCN(Cc2ccc(S(=O)(=O)Nc3cccc(C)c3)cc2)CC1`: 0.79 µM, above 50 µM and 0.63 µM.
The corresponding values for `COc1ccc(-c2cc(C)no2)cc1S(=O)(=O)Nc1ccc(C)c(C)c1` are 7.9 µM, 16 µM and 5 µM.
The corresponding values for `Cc1cc(Nc2ccc(C#N)c(Cl)c2C)n[nH]1` are > 50 µM (inactive), above 50 µM and 20 µM.
With `CCC1Oc2cc(S(=O)(=O)N(C)CC(=O)N3CCc4ccccc4C3)c(C)cc2NC1=O` (stereo unspecified), the IC50 was 0.25 µM. The compound also had an IC50 under setting [1] above 50 µM. Under setting [2], this compound registered a concentration for half-maximal inhibition (IC50) of 0.25 µM.
Take `O=C(NCc1ccc(Cl)cc1)C1CN(C(=O)c2ccc(F)cc2)CCS1` (stereo unspecified): the concentration for half-maximal inhibition (IC50) is 40 µM. In addition, the IC50 under setting [1] is above 50 µM. The same compound displayed an IC50 under setting [2] of 32 µM.
As to `COc1ccc(OC)c(S(=O)(=O)N(Cc2c(F)cccc2F)[C@@H]2CCN(C#N)C2)c1`, the IC50 is 13 µM. This compound also yielded an IC50 under setting [1] of 16 µM. The compound also showed a concentration for half-maximal inhibition (IC50) under setting [2] of 6.3 µM.
The corresponding values for `Cc1ccc(S(=O)(=O)Cn2nnnc2C(c2cccnc2)N2CCN(c3ccccc3)CC2)cc1` (stereo unspecified) are 0.32 µM, above 50 µM and 0.32 µM.
Regarding `Nc1nc(-c2ccccn2)nc(-n2nc(-c3ccccc3)cc2N)n1`, the IC50 is 2.5 µM. The same compound yielded an IC50 under setting [1] of 2 µM. The compound also returned a 50% inhibitory concentration (IC50) under setting [2] of 0.32 µM.
The matching figures for `COc1ccc2ncc(Cl)c(CCN3CC[C@@H](NCc4cc5c(cn4)OCS5)[C@H](O)C3)c2n1`: 0.079 µM, 25 µM and 0.063 µM.
The corresponding values for `CC(C)COC(=O)Nc1ccc(N2CCC(CNS(=O)(=O)c3ccccc3)CC2)c(F)c1` are 7.9 µM, above 79 µM and 7.9 µM.
The matching figures for `c1cc(-c2ncc(-c3ccn[nH]3)s2)ccn1`: 0.25 µM, above 50 µM and 0.25 µM.
With `CCN(CC)S(=O)(=O)c1ccc(C)c(NC(=O)c2cc(Cl)c3c(c2)OCO3)c1`, the IC50 was > 50 µM (inactive). The IC50 under setting [1] stood at 25 µM. This compound gave a 50% inhibitory concentration (IC50) under setting [2] above 50 µM.
For the compound `Cc1ccc(Nc2nc(C3CCCN3Cc3ccn[nH]3)cs2)nc1` (stereo unspecified), the IC50 is 2 µM. Besides, the IC50 under setting [1] turned out to be 10 µM. The compound also returned an IC50 under setting [2] of 2 µM.
In the case of `CC(CNS(=O)(=O)c1ccc(OC(F)F)cc1)c1ccc(NC(=O)c2ccncc2)cc1` (stereo unspecified), the IC50 was 0.1 µM. Under setting [1], the IC50 was above 50 µM. Under setting [2], this compound came in with an IC50 of 0.079 µM.
The corresponding values for `CCCCn1c(=O)c2c(N)onc2n(CCCC)c1=O` are 32 µM, 25 µM and 25 µM.
`OCCCNc1nc(Nc2ccncc2)nc2ccccc12`: the IC50 is 1.3 µM. The compound also came in with an IC50 under setting [1] above 50 µM. The IC50 under setting [2] is 0.2 µM.
